According to patent publication US20260294890A1, “LONG-TERM PREVENTION AND/OR TREATMENT OF A DISEASE BY SLO-1 INHIBITORS” (Elanco Animal Health GmbH, priority 2023, published 2026):

Experiments:
[1] = log P by HPLC on reversed phase columns (LC-MS Method 0); format: physicochemical; details: 0.1% formic acid/acetonitrile; Method 0, acidic range, 0.1% formic acid in water and acetonitrile; read-out: log P (HCOOH)
Method: Measurement of log P values was performed according to EEC directive 79/831 Annex V.A8 by HPLC (High Performance Liquid Chromatography) on reversed phase columns with the following methods, instrument(s): Agilent 1100 LC system, Agilent MSD system, HTS PAL; Waters IClass Acquity UPLC, SQD2 (MS), PDA (UV). • ^[a]log P value is determined by measurement of LC-UV, in an acidic range, with 0.1% formic acid in water and acetonitrile as eluent (linear gradient from 10% acetonitrile to 95% acetonitrile). • ^[b]log P value is determined by measurement of LC-UV, in a neutral range, with 0.001 molar ammonium acetate solution in water and acetonitrile as eluent (linear gradient from 10% acetonitrile to 95% acetonitrile).
Calibration was done with straight-chain alkan-2-ones (with 3 to 16 carbon atoms) with known log P values (measurement of log P values using retention times with linear interpolation between successive alkanones). Lambda-max-values were determined using UV-spectra from 200 nm to 400 nm and the peak values of the chromatographic signals.

[2] = Assay 1: half-life and plasma clearance upon intravenous administration to beagle dogs; format: in vivo; details: dog, iv dose up to 0.3 mg/kg, plasma, geometric mean, Phoenix PK/PD (Example 1: internal tool)
Method: Assay 1: Determination of Half-Life and Plasma Clearance of Compounds of the Invention Upon Administration to Beagle Dogs
Compounds according to the invention were administered as an intravenous (iv) dose (up to 0.3 mg/kg) to beagle dogs (minimum n=3). Blood samples were collected from these beagle dogs up to 168 h after intravenous administration and up to 3024 h after subcutaneous administration. A portion of each whole blood sample was processed to plasma. Compound concentrations were determined in plasma using LCMS/MS. Phoenix™ Pharmacokinetic and Pharmacodynamic (PK/PD) was used to determine half-life and plasma clearance values. Only for Example 1, an internal tool available to the inventors was used to determine the half-life and plasma clearance values.

chromatographic logP [1]: 1.93 | clearance [2]: 0.833 mL/min/kg | half-life ([2]; read-out: Half-life (h/Form) iv, geometric mean (converted)): 124 h
Compound: O=C(N[C@H]1CCOc2ccccc21)c1cnc2c(-c3cc(F)cc(F)c3F)c(F)ccc2c1N1CC(F)C1 [Example 7, N-[(4S)-3,4-Dihydro-2H-chromen-4-yl]-7-fluoro-4-(3-fluoroazetidin-1-yl)-8-(2,3,5-trifluorophenyl)quinoline-3-carboxamide]
